Where a name gives a salt, the structure may show the parent alone.
Columns and labels:
Assay in all cases: Cell viability drug screen, 12-point dose-response AUC
Assay type in all cases: cell-based, human
[1] = system: Hs746T; conditions: 72 hours; for Average Area Under the Viability Curve (AUC), AUC norm value: Hs746T cells (SEM subtype)
Outline: (§1)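 AUC values represent the area under DMSO-normalized 12-point curves, computed by trapezoid rule and averaged over repeated experiments. Each EMT-type gastric line was exposed to half-log serial concentrations for 72 h at 37 °C, and viability was measured with a Glo luminescence kit.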

[2] = system: SNU601; conditions: SNU601 cells, 72 hours
Outline: as §1

[3] = system: SNU16; conditions: SNU16 cells, 72 hours
Outline: as §1

[4] = system: SNU1967; conditions: SNU1967 cells, 72 hours
Outline: as §1

[5] = system: YCC11; conditions: 72 hours; for Average Area Under the Viability Curve (AUC), AUC norm value: YCC11 cells (SEM subtype)
Outline: as §1

[6] = system: SK4; conditions: 72 hours; for Average Area Under the Viability Curve (AUC), AUC norm value: SK4 cells (SEM subtype)
Outline: as §1

[7] = system: SNU216; conditions: 72 hours; for Average Area Under the Viability Curve (AUC), AUC norm value: SNU216 cells (non-SEM subtype)
Outline: (§2)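 Dose-response AUC reflects 72 h drug exposure of gastric cancer cells in a 12-point, half-log format, with viability read by luminescence and normalized to DMSO (0.5%).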

[8] = system: NCI_N87; conditions: NCI_N87 cells, 72 hours
Outline: as §1

[9] = system: SNU620; conditions: SNU620 cells, 72 hours
Outline: as §1

[10] = system: SNU668; conditions: 72 hours; for Average Area Under the Viability Curve (AUC), AUC norm value: SNU668 cells (SEM subtype)
Outline: as §1

[11] = system: MKN28; conditions: MKN28 cells, 72 hours
Outline: as §1

[12] = system: OCUM1; conditions: OCUM1 cells, 72 hours
Outline: as §1

[13] = system: SNU638; conditions: SNU638 cells, 72 hours
Outline: as §1

[14] = system: AGS; conditions: 72 hours; for Average Area Under the Viability Curve (AUC), AUC norm value: AGS cells (non-SEM subtype)
Outline: as §2

[15] = system: NCC59; conditions: NCC59 cells, 72 hours
Outline: as §1

[16] = system: NCC24; conditions: NCC24 cells, 72 hours
Outline: as §1

[17] = system: MKN74; conditions: MKN74 cells, 72 hours
Outline: as §2

[18] = system: NCC19; conditions: NCC19 cells, 72 hours
Outline: as §1

[19] = system: NCC20; conditions: NCC20 cells, 72 hours
Outline: as §1

[20] = system: MKN1; conditions: MKN1 cells, 72 hours
Outline: as §1

[21] = system: YCC3; conditions: YCC3 cells, 72 hours
Outline: as §1

[22] = system: SNU719; conditions: SNU719 cells, 72 hours
Outline: as §2

[23] = system: SNU1; conditions: SNU1 cells, 72 hours
Outline: as §1

[24] = system: YCC2; conditions: YCC2 cells, 72 hours
Outline: as §1

[25] = system: SNU484; conditions: 72 hours; for Average Area Under the Viability Curve (AUC), AUC norm value: SNU484 cells (SEM subtype)
Outline: as §1

[26] = system: MKN45; conditions: 72 hours; for Average Area Under the Viability Curve (AUC), AUC norm value: MKN45 cells (non-SEM subtype)
Outline: as §2

[27] = system: KATO3; conditions: KATO3 cells, 72 hours
Outline: as §1

[28] = system: SNU1750; conditions: 72 hours; for Average Area Under the Viability Curve (AUC), AUC norm value: SNU1750 cells (SEM subtype)
Outline: as §1

[29] = system: FU97; design: Average Area Under the Viability Curve (AUC), AUC norm value: scale not given here; conditions: FU97 cells, 72 hours
Outline: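 Trapezoidal AUC of a 12-point, DMSO-normalized dose-response curve. Luminescent viability was measured after 72 h of exposure at 37° C to half-log serial dilutions (0.5% DMSO control), dosed 24 h after plating FU97 cells at 5×10^3 per well.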

## CC[C@]1(O)C[C@@H]2CN(CCc3c([nH]c4ccccc34)[C@@](C(=O)OC)(c3cc4c(cc3OC)N(C)[C@H]3[C@@](O)(C(=O)OC)[C@H](OC(C)=O)[C@]5(CC)C=CCN6CC[C@]43[C@@H]65)C2)C1 [Vinblastine]
[1]
  Average Area Under the Viability Curve (AUC), AUC norm value: 1.1779
[2]
  Average Area Under the Viability Curve (AUC), AUC norm value: 0
[3]
  Average Area Under the Viability Curve (AUC), AUC norm value: −1.3
[4]
  Average Area Under the Viability Curve (AUC), AUC norm value: −0.9411
[5]
  Average Area Under the Viability Curve (AUC), AUC norm value: −0.6159
[6]
  Average Area Under the Viability Curve (AUC), AUC norm value: −1.0813
[7]
  Average Area Under the Viability Curve (AUC), AUC norm value: 2.539
[8]
  Average Area Under the Viability Curve (AUC), AUC norm value: −0.1721
[9]
  Average Area Under the Viability Curve (AUC), AUC norm value: −0.4909
[10]
  Average Area Under the Viability Curve (AUC), AUC norm value: −1.037
[11]
  Average Area Under the Viability Curve (AUC), AUC norm value: −0.818
[12]
  Average Area Under the Viability Curve (AUC), AUC norm value: 2.514
[13]
  Average Area Under the Viability Curve (AUC), AUC norm value: 0.2652
[14]
  Average Area Under the Viability Curve (AUC), AUC norm value: −1.129
[15]
  Average Area Under the Viability Curve (AUC), AUC norm value: 2.833
[16]
  Average Area Under the Viability Curve (AUC), AUC norm value: −0.9438
[17]
  Average Area Under the Viability Curve (AUC), AUC norm value: 0.6639
[18]
  Average Area Under the Viability Curve (AUC), AUC norm value: 2.905
[19]
  Average Area Under the Viability Curve (AUC), AUC norm value: −1.614
[20]
  Average Area Under the Viability Curve (AUC), AUC norm value: −0.9285
[21]
  Average Area Under the Viability Curve (AUC), AUC norm value: 4.54
[22]
  Average Area Under the Viability Curve (AUC), AUC norm value: 4.162
[23]
  Average Area Under the Viability Curve (AUC), AUC norm value: −0.3949
[24]
  Average Area Under the Viability Curve (AUC), AUC norm value: 2.06
[25]
  Average Area Under the Viability Curve (AUC), AUC norm value: −1.194
[26]
  Average Area Under the Viability Curve (AUC), AUC norm value: 1.844
[27]
  Average Area Under the Viability Curve (AUC), AUC norm value: 4.096
[28]
  Average Area Under the Viability Curve (AUC), AUC norm value: 0.6497
[29]
  Average Area Under the Viability Curve (AUC), AUC norm value: 0.3772

## CCCCC(CC)CNC(=N)NC(=N)NCCCCCCNC(=N)NC(=N)NCC(CC)CCCC (stereo not drawn) [Alexidine HCl]
[1]
  Average Area Under the Viability Curve (AUC), AUC norm value: −0.2597
[2]
  Average Area Under the Viability Curve (AUC), AUC norm value: 1.898
[3]
  Average Area Under the Viability Curve (AUC), AUC norm value: −1.849
[4]
  Average Area Under the Viability Curve (AUC), AUC norm value: 0.1828
[5]
  Average Area Under the Viability Curve (AUC), AUC norm value: −1.347
[6]
  Average Area Under the Viability Curve (AUC), AUC norm value: −0.9023
[7]
  Average Area Under the Viability Curve (AUC), AUC norm value: 0.03777
[8]
  Average Area Under the Viability Curve (AUC), AUC norm value: 2.531
[9]
  Average Area Under the Viability Curve (AUC), AUC norm value: 0.0423
[10]
  Average Area Under the Viability Curve (AUC), AUC norm value: −0.1375
[11]
  Average Area Under the Viability Curve (AUC), AUC norm value: 0
[12]
  Average Area Under the Viability Curve (AUC), AUC norm value: −0.04134
[13]
  Average Area Under the Viability Curve (AUC), AUC norm value: −0.612
[14]
  Average Area Under the Viability Curve (AUC), AUC norm value: −0.444
[15]
  Average Area Under the Viability Curve (AUC), AUC norm value: 1.334
[16]
  Average Area Under the Viability Curve (AUC), AUC norm value: −0.4745
[17]
  Average Area Under the Viability Curve (AUC), AUC norm value: −0.3433
[18]
  Average Area Under the Viability Curve (AUC), AUC norm value: 1.132
[19]
  Average Area Under the Viability Curve (AUC), AUC norm value: 0.6963
[20]
  Average Area Under the Viability Curve (AUC), AUC norm value: 0.8687
[21]
  Average Area Under the Viability Curve (AUC), AUC norm value: 0.8273
[22]
  Average Area Under the Viability Curve (AUC), AUC norm value: 1.2
[23]
  Average Area Under the Viability Curve (AUC), AUC norm value: 0.7061
[24]
  Average Area Under the Viability Curve (AUC), AUC norm value: −0.00823
[25]
  Average Area Under the Viability Curve (AUC), AUC norm value: −1.212
[26]
  Average Area Under the Viability Curve (AUC), AUC norm value: 0.04553
[27]
  Average Area Under the Viability Curve (AUC), AUC norm value: 0.541
[28]
  Average Area Under the Viability Curve (AUC), AUC norm value: −0.6331
[29]
  Average Area Under the Viability Curve (AUC), AUC norm value: −0.9535

## CC(C)C[C@H](NC(=O)[C@H](Cc1ccccc1)NC(=O)c1cnccn1)B(O)O [Bortezomib (Velcade), Bortezomib]
[1]; Hs746T cells, 12-point dose-response
  area under the viability curve (AUC), normalized: −0.9394
[2]; 12-point dose-response
  area under the viability curve (AUC), normalized: −0.07383
[3]; 12-point dose-response
  area under the viability curve (AUC), normalized: −0.0987
[4]; 12-point dose-response
  area under the viability curve (AUC), normalized: −0.8453
[5]; YCC11 cells, 12-point dose-response
  area under the viability curve (AUC), normalized: −0.6649
[6]; SK4 cells, 12-point dose-response
  area under the viability curve (AUC), normalized: 0.3944
[7]; SNU216 cells, 12-point dose-response
  area under the viability curve (AUC), normalized: 0.4223
[8]; 12-point dose-response
  area under the viability curve (AUC), normalized: 1.569
[9]; 12-point dose-response
  area under the viability curve (AUC), normalized: −0.6115
[10]; SNU668 cells, 12-point dose-response
  area under the viability curve (AUC), normalized: 1.358
[11]; 12-point dose-response
  area under the viability curve (AUC), normalized: −0.416
[12]; 12-point dose-response
  area under the viability curve (AUC), normalized: 2.346
[13]; 12-point dose-response
  area under the viability curve (AUC), normalized: 0.06564
[14]; AGS cells, 12-point dose-response
  area under the viability curve (AUC), normalized: −0.1894
[15]; 12-point dose-response
  area under the viability curve (AUC), normalized: 0.8821
[16]; 12-point dose-response
  area under the viability curve (AUC), normalized: −0.3911
[17]; 12-point dose-response
  area under the viability curve (AUC), normalized: 0
[18]; 12-point dose-response
  area under the viability curve (AUC), normalized: −0.6969
[19]; 12-point dose-response
  area under the viability curve (AUC), normalized: −0.1078
[20]; 12-point dose-response
  area under the viability curve (AUC), normalized: 0.3149
[21]; 12-point dose-response
  area under the viability curve (AUC), normalized: 2.791
[22]; 12-point dose-response
  area under the viability curve (AUC), normalized: 1.081
[23]; 12-point dose-response
  area under the viability curve (AUC), normalized: −0.3028
[24]; 12-point dose-response
  area under the viability curve (AUC), normalized: 0.6953
[25]; SNU484 cells, 12-point dose-response
  area under the viability curve (AUC), normalized: −0.6338
[26]; MKN45 cells, 12-point dose-response
  area under the viability curve (AUC), normalized: 0.1641
[27]; 12-point dose-response
  area under the viability curve (AUC), normalized: 1.082
[28]; SNU1750 cells, 12-point dose-response
  area under the viability curve (AUC), normalized: −1.326
[29]; 12-point dose-response
  area under the viability curve (AUC), normalized: 0.01494
